The values below come from patent publication US20240279221A1, “HETEROCYCLIC COMPOUNDS AND METHODS OF USE” (Schrödinger, Inc., priority 2021, published 2024).

The target of the experiment is SOS1:KRAS (G12C) interaction (Homo sapiens (Human), UniProt Q07889). Briefly: SOS1-KRas(G12C) FRET Assay. The note with it: 0.5 nM His10-SOS1 (res. 564-1049), 2.5 nM GST-KRAS (res. 1-169, G12C); read-out: SOS-KRas(G12C) FRET IC50. The experiment is classed as binding. The method, then: Inhibition of the SOS1:KRAS interaction was measured using purified GST-tagged KRAS (res. 1-169, G12C, purified based on Hillig, et al., Proc Natl Acad Sci USA (2019); 116(7):2551-2560) and recombinant His10-SOS1 (res. 564-1049; purified based on Hillig, et al.). The final assay was performed at 20 uL with 0.5 nM SOS1 protein and 2.5 nM KRAS protein in a buffer of PBS, 0.1% BSA, 5 mM MgCl2, 0.0025% Igepal, 100 mM KF, 5 mM DTT in a white 384 square well OptiPlate (PerkinElmer, Cat. 6007290). A 2× KRAS working solution was prepared in an assay buffer containing 5 nM GST-KRAS G12C and 2 nM anti-GST-Eu(K) (Cisbio, Cat. 61GSTKLA) and pre-incubated for 15 minutes at 25° C. Compounds were serially diluted in 100% DMSO from 2 mM (positive control, compound I-13, PCT Publ. No. WO2018/115380) or 20 mM and then diluted 1:20 in assay buffer before incubation with a solution of SOS1 protein mixed 1:5 with anti-6His-XL665 FRET donor (Cisbio, Cat. 61HISXL) for 15 minutes at 25° C. before addition of 2× KRAS working solution. The final DMSO concentration is 0.5%. Plates were incubated at RT for 2 hrs before the FRET signal was measured using Envision at emission 665 nm and 615 nm. FRET signal was converted to percentage of protein-protein interaction using the following equation:
[formula] • C: signal with compound treatment • P: signal for positive control (DMSO) • N: signal for negative control (no SOS1 added) • IC50 and Hill coefficients were obtained using Graph Pad Prism (Graph Pad software, Inc, USA) with non-linear regression analysis.

SMILES strings stand for the structures.

Sequence of SOS1:KRAS (G12C) interaction (Q07889 564-1049, stated change not applied): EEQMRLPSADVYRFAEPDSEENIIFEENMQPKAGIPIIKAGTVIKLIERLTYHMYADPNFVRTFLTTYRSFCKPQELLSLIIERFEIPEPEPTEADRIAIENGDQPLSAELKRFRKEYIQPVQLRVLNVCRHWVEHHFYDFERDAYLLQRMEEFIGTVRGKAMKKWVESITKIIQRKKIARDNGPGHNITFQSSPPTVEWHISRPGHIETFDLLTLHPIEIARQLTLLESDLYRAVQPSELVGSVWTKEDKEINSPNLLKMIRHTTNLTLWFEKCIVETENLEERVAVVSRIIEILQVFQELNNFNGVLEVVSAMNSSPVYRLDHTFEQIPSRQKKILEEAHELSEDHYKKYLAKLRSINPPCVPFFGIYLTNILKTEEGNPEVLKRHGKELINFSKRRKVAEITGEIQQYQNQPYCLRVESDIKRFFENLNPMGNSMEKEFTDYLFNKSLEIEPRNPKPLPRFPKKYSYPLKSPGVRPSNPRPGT

By IC50 is commonly meant the point on the concentration scale where inhibition reaches its midpoint. As to `Cn1nc(N[C@@H](c2cccc(C(F)(F)F)c2)C(F)F)c2cn(C3CC3)c(=O)cc2c1=O` [Example 111, (S)-6-cyclopropyl-4-((2,2-difluoro-1-(3-(trifluoromethyl)phenyl)ethyl)amino)-2-methylpyrido[3,4-d]pyridazine-1,7(2H,6H)-dione], the half-inhibitory concentration (IC50) was 631 nM.

`Cn1nc(N[C@H](c2cccc(C(F)(F)F)c2)C(F)F)c2cn(C3CC3)c(=O)cc2c1=O` [Example 112, (R)-6-cyclopropyl-4-((2,2-difluoro-1-(3-(trifluoromethyl)phenyl)ethyl)amino)-2-methylpyrido[3,4-d]pyridazine-1,7(2H,6H)-dione]: the half-maximal inhibitory concentration (IC50) is greater than 10000 nM. The same measure for `C[C@H](Nc1nn(C)c(=O)c2cc(=O)n(C3(C(F)F)CC3)cc12)c1cccc2cccn12` [Example 113, (S)-6-(1-(difluoromethyl)cyclopropyl)-4-((1-(indolizin-5-yl)ethyl)amino)-2-methyl-2,6-dihydropyrido[3,4-d]pyridazine-1,7-dione]: greater than 10000 nM; for `C[C@@H](Nc1nn(C)c(=O)c2cc(=O)n(C3(C(F)F)CC3)cc12)c1cccc2cccn12` [Example 114, (R)-6-(1-(difluoromethyl)cyclopropyl)-4-((1-(indolizin-5-yl)ethyl)amino)-2-methyl-2,6-dihydropyrido[3,4-d]pyridazine-1,7-dione]: 2060 nM. Then `C[C@H](Nc1nn(C)c(=O)c2cc(=O)n(C3(C(F)F)CC3)cc12)c1cccc2ccnn12` [Example 115, (S)-6-(1-(difluoromethyl)cyclopropyl)-2-methyl-4-((1-(pyrazolo[1,5-a]pyridin-7-yl)ethyl)amino)-2,6-dihydropyrido[3,4-d]pyridazine-1,7-dione], with greater than 10000 nM; and `C[C@@H](Nc1nn(C)c(=O)c2cc(=O)n(C3(C(F)F)CC3)cc12)c1cccc2ccnn12` [Example 116, (R)-6-(1-(difluoromethyl)cyclopropyl)-2-methyl-4-((1-(pyrazolo[1,5-a]pyridin-7-yl)ethyl)amino)-2,6-dihydropyrido[3,4-d]pyridazine-1,7-dione], with greater than 10000 nM; and `Cc1cc([C@H](C)Nc2nn(C)c(=O)c3cc(=O)n(C4CC4)cc23)cc(C(F)(F)F)c1` [Example 117, 6-cyclopropyl-2-methyl-4-[[(1S)-1-[3-methyl-5-(trifluoromethyl)phenyl]ethyl]amino]pyrido[3,4-d]pyridazine-1,7-dione], with 568 nM.

In the case of `Cc1cc([C@@H](C)Nc2nn(C)c(=O)c3cc(=O)n(C4CC4)cc23)cc(C(F)(F)F)c1` [Example 118, 6-cyclopropyl-2-methyl-4-[[(1R)-1-[3-methyl-5-(trifluoromethyl)phenyl]ethyl]amino]pyrido[3,4-d]pyridazine-1,7-dione], the IC50 is greater than 10000 nM. Regarding `C[C@@H](Nc1nn(C)c(=O)c2cc(=O)n(C3(CO)CC3)cc12)c1cccc(C(F)F)c1F` [Example 123, (R)-4-((1-(3-(difluoromethyl)-2-fluorophenyl)ethyl)amino)-6-(1-(hydroxymethyl)cyclopropyl)-2-methylpyrido[3,4-d]pyridazine-1,7(2H,6H)-dione], the IC50 came out at 366 nM. On to `C[C@@H](Nc1nn(C)c(=O)c2cc(=O)n(C3(CN4CC(F)C4)CC3)cc12)c1cccc(C(F)F)c1F` [Example 124, (R)-4-((1-(3-(difluoromethyl)-2-fluorophenyl)ethyl)amino)-6-(1-((3-fluoroazetidin-1-yl)methyl)cyclopropyl)-2-methylpyrido[3,4-d]pyridazine-1,7(2H,6H)-dione], for which the IC50 worked out at 886 nM. The same measure for `C[C@@H](Nc1nn(C)c(=O)c2cc(=O)n(C3(CF)CC3)cc12)c1cccc(C(F)F)c1F` [Example 125, (R)-4-((1-(3-(difluoromethyl)-2-fluorophenyl)ethyl)amino)-6-(1-(fluoromethyl)cyclopropyl)-2-methylpyrido[3,4-d]pyridazine-1,7(2H,6H)-dione]: 54.3 nM; for `C[C@@H](Nc1nn(C)c(=O)c2cc(=O)n(C3(C(C)(F)F)CC3)cc12)c1cccc(C(F)F)c1F` [Example 126, (R)-6-(1-(1,1-difluoroethyl)cyclopropyl)-4-((1-(3-(difluoromethyl)-2-fluorophenyl)ethyl)amino)-2-methyl-2,6-dihydropyrido[3,4-d]pyridazine-1,7-dione]: 67.8 nM; for `Cc1c([C@@H](C)Nc2nn(C)c(=O)c3cc(=O)n(C45COC(C)(C4)C5)cc23)cccc1C(F)(F)F` [Example 127, (R)-2-methyl-4-((1-(2-methyl-3-(trifluoromethyl)phenyl)ethyl)amino)-6-(1-methyl-2-oxabicyclo[2.1.1]hexan-4-yl)-2,6-dihydropyrido[3,4-d]pyridazine-1,7-dione]: 90 nM. Then `C[C@@H](Nc1nn(C)c(=O)c2cc(=O)n(C3(C)CC(F)(F)C3)cc12)c1cccc(C(F)F)c1F` [Example 134, (R)-6-(3,3-difluoro-1-methylcyclobutyl)-4-((1-(3-(difluoromethyl)-2-fluorophenyl)ethyl)amino)-2-methyl-2,6-dihydropyrido[3,4-d]pyridazine-1,7-dione], with 282 nM; and `C[C@@H](Nc1nn(C)c(=O)c2cc(=O)n(C34CNC(C3)C4)cc12)c1cccc(C(F)F)c1F` [Example 145, (R)-6-(2-azabicyclo[2.1.1]hexan-4-yl)-4-((1-(3-(difluoromethyl)-2-fluorophenyl)ethyl)amino)-2-methyl-2,6-dihydropyrido[3,4-d]pyridazine-1,7-dione], with 83 nM. Then `CC(=O)N1CC2(n3cc4c(N[C@H](C)c5cccc(C(F)F)c5F)nn(C)c(=O)c4cc3=O)CC1C2` [Example 146, (R)-6-(2-acetyl-2-azabicyclo[2.1.1]hexan-4-yl)-4-((1-(3-(difluoromethyl)-2-fluorophenyl)ethyl)amino)-2-methyl-2,6-dihydropyrido[3,4-d]pyridazine-1,7-dione], with 70.6 nM.

Regarding `C[C@@H](Nc1nn(C)c(=O)c2cc(=O)n(C3(C(F)F)CCC3)cc12)c1cccc(C(F)F)c1F` [Example 147, (R)-4-((1-(3-(difluoromethyl)-2-fluorophenyl)ethyl)amino)-6-(1-(difluoromethyl)cyclo-butyl)-2-methyl-2,6-dihydropyrido[3,4-d]pyridazine-1,7-dione], the half-maximal inhibitory concentration (IC50) came to 32.4 nM. The same measure for `C[C@@H](Nc1nn(C)c(=O)c2cc(=O)n([C@]34COC[C@H]3C4)cc12)c1cccc(C(F)F)c1F` [Example 148, 4-[[(1R)-1-[3-(difluoromethyl)-2-fluoro-phenyl]ethyl]amino]-2-methyl-6-[(1S,5S)-3-oxabicyclo[3.1.0]hexan-1-yl]pyrido[3,4-d]pyridazine-1,7-dione]: 40.5 nM; for `CC(=O)N1CC(C)(n2cc3c(N[C@H](C)c4cccc(C(F)F)c4F)nn(C)c(=O)c3cc2=O)C1` [Example 149, (R)-6-(1-acetyl-3-methylazetidin-3-yl)-4-((1-(3-(difluoromethyl)-2-fluorophenyl)ethyl)amino)-2-methylpyrido[3,4-d]pyridazine-1,7(2H,6H)-dione]: 34.3 nM. Then `C[C@@H](Nc1nn(C)c(=O)c2cc(=O)n(C3(C)CN(C(=O)C4CC4)C3)cc12)c1cccc(C(F)F)c1F` [Example 150, (R)-6-(1-(cyclopropanecarbonyl)-3-methylazetidin-3-yl)-4-((1-(3-(difluoromethyl)-2-fluorophenyl)ethyl)amino)-2-methyl-2,6-dihydropyrido[3,4-d]pyridazine-1,7-dione], with 5.5 nM. Then `COC1(C(=O)N2CC(C)(n3cc4c(N[C@H](C)c5cccc(C(F)F)c5F)nn(C)c(=O)c4cc3=O)C2)CC1` [Example 151, (R)-4-((1-(3-(difluoromethyl)-2-fluorophenyl)ethyl)amino)-6-(1-(1-methoxycyclopropane-1-carbonyl)-3-methylazetidin-3-yl)-2-methyl-2,6-dihydropyrido[3,4-d]pyridazine-1,7-dione], with 564 nM. In the case of `C[C@@H](Nc1nn(C)c(=O)c2cc(=O)n(C3(C)CNC3)cc12)c1cccc(C(F)F)c1F` [Example 152, (R)-4-((1-(3-(difluoromethyl)-2-fluorophenyl)ethyl)amino)-2-methyl-6-(3-methylazetidin-3-yl)pyrido[3,4-d]pyridazine-1,7(2H,6H)-dione], the IC50 was 248 nM.

Take `C[C@@H](Nc1nn(C)c(=O)c2cc(=O)n(C3(C)CN(C(=O)C4(F)CC4)C3)cc12)c1cccc(C(F)F)c1F` [Example 153, (R)-4-((1-(3-(difluoromethyl)-2-fluorophenyl)ethyl)amino)-6-(1-(1-fluorocyclopropane-1-carbonyl)-3-methylazetidin-3-yl)-2-methyl-2,6-dihydropyrido[3,4-d]pyridazine-1,7-dione]: the IC50 came out at 86.9 nM.
